Where a name gives a salt, the structure may show the parent alone. Read-outs that look alike come from different tables or passages of the source.
Tests used:
Type in all cases: cell-based
[1] = test system: Staphylococcus aureus MSSA; test: in vitro bacteriostatic activity, agar dilution MIC; conditions: Staphylococcus aureus, MSSA
Staphylococcus aureus = test: in vitro bacteriostatic activity, agar dilution MIC, quality control strains; conditions: ATCC25923; Staphylococcus aureus ATCC 25923; read-out: MIC
Klebsiella pneumonia = test: in vitro bacteriostatic activity, agar dilution MIC, quality control strain and summary; conditions: Klebsiella pneumoniae, ATCC700603; Klebsiella pneumonia ATCC 700603; read-out: MIC
[2] = test system: Staphylococcus aureus MRSA; test: in vitro bacteriostatic activity, agar dilution MIC; conditions: MRSA
Enterococcus faecium = test: as above; conditions: Enterococcus faecium, read-out: MIC
[3] = test system: Staphylococcus epidermidis ATCC 12228; test: in vitro bacteriostatic activity, agar dilution MIC, quality control strain; conditions: Staphylococcus epidermidis, ATCC12228
Escherichia coli = test: in vitro bacteriostatic activity, agar dilution MIC, quality control strain and summary; conditions: ATCC25922; Escherichia coli ATCC 25922; read-out: MIC
[4] = test system: Staphylococcus epidermidis MRSE; test: in vitro bacteriostatic activity, agar dilution MIC
Streptococcus pneumoniae = test: as above
Klebsiella pneumonia E^- = test: as above
Escherichia coli E^- = test: as above
[5] = test system: Staphylococcus epidermidis MSSE; test: as above
Enterococcus faecalis = test: as above; conditions: Enterococcus faecalis, read-out: MIC
Klebsiella pneumonia E^+ = test: as above; conditions: Klebsiella pneumoniae

Compound: C[C@H]1COc2c(N3CCN(C)CC3)c(F)cc3c(=O)c(C(=O)O)cn1c23 [levofloxacin, Levofloxacin hydrochloride]
- MIC ([1]; Staphylococcus aureus MSSA 10-38, read-out: MIC): 0.1 µg/mL
- MIC ([1]; Staphylococcus aureus MSSA 10-40, read-out: MIC): 0.1 µg/mL
- MIC ([1]; Staphylococcus aureus MSSA 10-41, read-out: MIC): 0.1 µg/mL
- MIC ([1]; Staphylococcus aureus MSSA 12-11): 0.125 µg/mL
- MIC ([1]; Staphylococcus aureus MSSA 12-13): 0.125 µg/mL
- MIC ([1]; Staphylococcus aureus MSSA 12-14): 0.125 µg/mL
- MIC ([1]; Staphylococcus aureus MSSA 12-15): 0.125 µg/mL
- MIC ([1]; Staphylococcus aureus MSSA 12-16, read-out: MIC): 0.06 µg/mL
- MIC ([1]; Staphylococcus aureus MSSA 12-17, read-out: MIC): 0.06 µg/mL
- MIC ([1]; Staphylococcus aureus MSSA 12-18): 0.125 µg/mL
- MIC ([1]; Staphylococcus aureus MSSA 12-19, read-out: MIC): 0.06 µg/mL
- MIC ([1]; Staphylococcus aureus MSSA 12-20): 0.125 µg/mL
- MIC ([1]; Staphylococcus aureus MSSA 12-21): 0.125 µg/mL
- MIC (Staphylococcus aureus): 0.1 µg/mL
- MIC (Klebsiella pneumonia): 0.39 µg/mL
- MIC ([2]; Staphylococcus aureus MRSA 10-31, read-out: MIC): 25 µg/mL
- MIC ([2]; Staphylococcus aureus MRSA 10-32, read-out: MIC): 12.5 µg/mL
- MIC (Enterococcus faecium; ATCC33186, Enterococcus faecium ATCC 33186): 1 µg/mL
- MIC (Enterococcus faecium; Enterococcus faecium 12-7): 32 µg/mL
- MIC (Enterococcus faecium; Enterococcus faecium 12-8): 64 µg/mL
- MIC (Enterococcus faecium; Enterococcus faecium 12-9): 32 µg/mL
- MIC (Enterococcus faecium; Enterococcus faecium 12-10): 32 µg/mL
- MIC (Enterococcus faecium; Enterococcus faecium 12-11): 32 µg/mL
- MIC (Enterococcus faecium; Enterococcus faecium 12-12): 64 µg/mL
- MIC (Enterococcus faecium; Enterococcus faecium 12-13): 64 µg/mL
- MIC (Enterococcus faecium; Enterococcus faecium 12-14): 32 µg/mL
- MIC (Enterococcus faecium; Enterococcus faecium 12-15): 32 µg/mL
- MIC (Enterococcus faecium; Enterococcus faecium 12-16): 64 µg/mL
- MIC [3]: 0.125 µg/mL
- MIC (Escherichia coli): < 0.006 µg/mL
- MIC ([4]; Staphylococcus epidermidis MRSE 10-40, read-out: MIC): 0.1 µg/mL
- MIC ([4]; Staphylococcus epidermidis MRSE 10-44, read-out: MIC): 3.1 µg/mL
- MIC (Streptococcus pneumoniae; ATCC49619, Streptococcus pneumonia ATCC 49619): 0.1 µg/mL
- MIC (Streptococcus pneumoniae; Streptococcus pneumonia 12-6): 25 µg/mL
- MIC (Streptococcus pneumoniae; Streptococcus pneumonia 12-7): 12.5 µg/mL
- MIC (Streptococcus pneumoniae; Streptococcus pneumonia 12-8): 25 µg/mL
- MIC (Streptococcus pneumoniae; Streptococcus pneumonia 12-9): 25 µg/mL
- MIC (Streptococcus pneumoniae; Streptococcus pneumonia 12-10): 12.5 µg/mL
- MIC (Streptococcus pneumoniae; Streptococcus pneumoniae 12-1): 12.5 µg/mL
- MIC (Streptococcus pneumoniae; Streptococcus pneumoniae 12-2): 25 µg/mL
- MIC (Streptococcus pneumoniae; Streptococcus pneumoniae 12-3): 25 µg/mL
- MIC (Streptococcus pneumoniae; Streptococcus pneumoniae 12-4): 25 µg/mL
- MIC (Streptococcus pneumoniae; Streptococcus pneumoniae 12-5): 25 µg/mL
- MIC (Klebsiella pneumonia E^-; Klebsiella pneumonia E^- 10-18): 0.025 µg/mL
- MIC (Klebsiella pneumonia E^-; Klebsiella pneumoniae, Klebsiella pneumonia E^- 10-16, read-out: MIC): 0.025 µg/mL
- MIC (Escherichia coli E^-; Escherichia coli E^- 10-12): 0.1 µg/mL
- MIC (Escherichia coli E^-; Escherichia coli E^- 10-18): 12.5 µg/mL
- MIC ([5]; Staphylococcus epidermidis): 0.125 µg/mL
- MIC ([5]; Staphylococcus epidermidis MSSE 12-12): 0.125 µg/mL
- MIC ([5]; Staphylococcus epidermidis MSSE 12-16): 0.125 µg/mL
- MIC ([5]; Staphylococcus epidermidis, Staphylococcus epidermidis MSSE 10-43, read-out: MIC): 0.1 µg/mL
- MIC ([5]; Staphylococcus epidermidis, Staphylococcus epidermidis MSSE 10-44, read-out: MIC): 3.1 µg/mL
- MIC ([5]; Staphylococcus epidermidis, Staphylococcus epidermidis MSSE 12-13, read-out: MIC): 0.5 µg/mL
- MIC ([5]; Staphylococcus epidermidis, Staphylococcus epidermidis MSSE 12-14, read-out: MIC): 0.5 µg/mL
- MIC ([5]; Staphylococcus epidermidis, Staphylococcus epidermidis MSSE 12-15, read-out: MIC): 0.5 µg/mL
- MIC ([5]; Staphylococcus epidermidis, Staphylococcus epidermidis MSSE 12-17, read-out: MIC): 0.5 µg/mL
- MIC ([5]; Staphylococcus epidermidis, Staphylococcus epidermidis MSSE 12-18, read-out: MIC): 1 µg/mL
- MIC ([5]; Staphylococcus epidermidis, Staphylococcus epidermidis MSSE 12-19, read-out: MIC): 0.5 µg/mL
- MIC ([5]; Staphylococcus epidermidis, Staphylococcus epidermidis MSSE 12-20, read-out: MIC): 1 µg/mL
- MIC (Enterococcus faecalis; ATCC29212, Enterococcus faecalis ATCC 29212): 0.25 µg/mL
- MIC (Enterococcus faecalis; ATCC51299, Enterococcus faecalis (high endurance) ATCC 51299): 0.25 µg/mL
- MIC (Enterococcus faecalis; Enterococcus faecalis 12-11): 16 µg/mL
- MIC (Enterococcus faecalis; Enterococcus faecalis 12-12): 32 µg/mL
- MIC (Enterococcus faecalis; Enterococcus faecalis 12-13): 8 µg/mL
- MIC (Enterococcus faecalis; Enterococcus faecalis 12-14): 64 µg/mL
- MIC (Enterococcus faecalis; Enterococcus faecalis 12-17): 0.5 µg/mL
- MIC (Enterococcus faecalis; Enterococcus faecalis 12-18): 0.5 µg/mL
- MIC (Enterococcus faecalis; Enterococcus faecalis 12-19): 32 µg/mL
- MIC (Enterococcus faecalis; Enterococcus faecalis 12-20): 4 µg/mL
- MIC (Enterococcus faecalis; Enterococcus faecalis 12-21): 4 µg/mL
- MIC (Enterococcus faecalis; Enterococcus faecalis 12-22): 8 µg/mL
- MIC (Klebsiella pneumonia E^+; Klebsiella pneumonia E^+ 10-2): 12.5 µg/mL
- MIC (Klebsiella pneumonia E^+; Klebsiella pneumonia E^+ 10-6): 0.0125 µg/mL

Reference: patent EP2826473A1, “NOVEL USE OF PATCHOULOL” (Chengdu Huasun Group Inc., Ltd., priority 2012, dated 2013)
